This is an account of results in US6291507A, “Chemical compounds” (Astrazeneca UK Limited, priority 1998, dated 2001).

The experiment has as its target T1, hMCP-1 receptor (MCP-1 receptor B, CCR2B) (Homo sapiens, UniProt P41597).
T1 construct: expressed in transfected cells; host or cells: CHO-K1 (clone 7, CHO-CCR2B), membrane fragments
T1 sequence (P41597 1-360 isoform P41597-2): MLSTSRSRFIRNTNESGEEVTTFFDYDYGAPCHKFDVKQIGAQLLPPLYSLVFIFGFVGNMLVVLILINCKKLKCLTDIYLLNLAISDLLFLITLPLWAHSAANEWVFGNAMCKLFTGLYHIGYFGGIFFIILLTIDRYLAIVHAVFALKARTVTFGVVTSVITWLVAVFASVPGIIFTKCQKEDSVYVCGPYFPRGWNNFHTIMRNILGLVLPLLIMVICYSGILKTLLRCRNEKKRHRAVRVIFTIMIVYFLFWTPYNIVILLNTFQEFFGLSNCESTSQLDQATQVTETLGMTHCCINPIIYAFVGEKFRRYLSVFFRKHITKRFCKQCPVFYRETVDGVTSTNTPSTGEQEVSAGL
As to the kind of experiment: hMCP-1 receptor-binding assay. The note with it: competition with 100 pM 125I-labelled MCP-1; CHO-CCR2B cell membranes; 0.1-200 μM, eight point dose-response curves in duplicate. From the text:
a) hMCP-1 Receptor-binding Assay
The MCP-1 receptor B (CCR2B) cDNA was cloned by PCR from THP-1 cell RNA using suitable oligonucleotide primers based on the published MCP-1 receptor sequences (Charo et al., 1994, Proc. Natl. Acad. Sci. USA, 91, 2752). The resulting PCR products were cloned into vector PCR-II™ (InVitrogen, San Diego, Calif.). Error free CCR2B cDNA was subcloned as a Hind III-Not I fragment into the eukaryotic expression vector pCDNA3 (InVitrogen) to generate pCDNA3/CC-CKR2A and pCDNA3/CCR2B respectively.
Linearised pCDNA3/CCR2B DNA was transfected into CHO-KI cells by calcium phosphate precipitation (Wigler et al., 1979, Cell, 16, 777). Transfected cells were selected by the addition of Geneticin Sulphate (G418, Gibco BRL) at 1 mg/ml, 24 hours after the cells had been transfected. Preparation of RNA and Northern blotting were carried out as described previously (Needham et al., 1995, Prot. Express. Purific., 6, 134). CHO-K1 clone 7 (CHO-CCR2B) was identified as the highest MCP-1 receptor B expressor.
CHO-CCR2B cells were grown in DMEM supplemented with 10% foetal calf serum, 2 mM glutamine, lx Non-Essential Amino Acids, 1× Hypoxanthine and Thymidine Supplement and Penicillin-Streptomycin (at 50 μg streptomycin/ml; Gibco BRL). […]

SMILES strings stand for the structures.

The IC50 is the midpoint of a concentration-inhibition curve. A high value points to weaker potency. In turn, `Cc1c2c(n(Cc3ccc(Cl)c(Cl)c3)c1C(=O)O)CCCC2=O` [Example 4a, 1-(3,4-Dichlorobenzyl)-3-methyl-4-oxo-4,5,6,7-tetrahydroindole-2-carboxylicAcid] gave an IC50 of 400 nM.
